Laboratory results: ChEMBL document CHEMBL5052832, “Inhibition of ngly1 for the treatment of cancer” (2021)
Active and inactive are the calls of the source. No cut-off for these calls is given here.

Columns and labels:
[1] = Antiproliferative activity against human HDF51 cells at 10 to 1000 uM assessed as decrease in cell viability; type: toxicity, cell-based; conditions: hdf51, 1000 µM, dose 10-1000 µM
[2] = system: UACC-257; test: Antiproliferative activity against human UACC-257 cells at 10 to 1000 uM assessed as decrease in cell viability; type: functional, cell-based; conditions: dose 10-1000 µM
[3] = Antiproliferative activity against human HDF418 cells at 10 to 1000 uM assessed as decrease in cell viability; type: toxicity, cell-based; conditions: hdf418, 1000 µM, dose 10-1000 µM
[4] = system: SK-MEL-2; test: Antiproliferative activity against human SK-MEL-2 cells at 10 to 1000 uM assessed as decrease in cell viability; type: functional, cell-based; conditions: dose 10-1000 µM
[5] = system: UACC-257; test: Antiproliferative activity against doxycycline-induced NGLY1 knocked down human UACC-257 cells at 20 uM in presence of dacarbazine assessed as decrease in growth inhibition after 72 hrs by MTT assay; type: functional, cell-based
[6] = system: Malme-3M; test: Antiproliferative activity against doxycycline-induced NGLY1 knocked down human Malme-3M cells at 20 uM in presence of dacarbazine assessed as decrease in growth inhibition after 72 hrs by MTT assay; type: functional, cell-based
[7] = target: T1, Peptide-N(4)-(N-acetyl-beta-glucosaminyl)asparagine amidase (Homo sapiens) (UniProt Q96IV0); test: Inhibition of NGLY1 in human HEK293T cells at 200 uM assessed as retention of N-glycans on full-length NFE2L1 measured by electrophoretic mobility shift assay; type: cell-based
T1 sequence (whole entry): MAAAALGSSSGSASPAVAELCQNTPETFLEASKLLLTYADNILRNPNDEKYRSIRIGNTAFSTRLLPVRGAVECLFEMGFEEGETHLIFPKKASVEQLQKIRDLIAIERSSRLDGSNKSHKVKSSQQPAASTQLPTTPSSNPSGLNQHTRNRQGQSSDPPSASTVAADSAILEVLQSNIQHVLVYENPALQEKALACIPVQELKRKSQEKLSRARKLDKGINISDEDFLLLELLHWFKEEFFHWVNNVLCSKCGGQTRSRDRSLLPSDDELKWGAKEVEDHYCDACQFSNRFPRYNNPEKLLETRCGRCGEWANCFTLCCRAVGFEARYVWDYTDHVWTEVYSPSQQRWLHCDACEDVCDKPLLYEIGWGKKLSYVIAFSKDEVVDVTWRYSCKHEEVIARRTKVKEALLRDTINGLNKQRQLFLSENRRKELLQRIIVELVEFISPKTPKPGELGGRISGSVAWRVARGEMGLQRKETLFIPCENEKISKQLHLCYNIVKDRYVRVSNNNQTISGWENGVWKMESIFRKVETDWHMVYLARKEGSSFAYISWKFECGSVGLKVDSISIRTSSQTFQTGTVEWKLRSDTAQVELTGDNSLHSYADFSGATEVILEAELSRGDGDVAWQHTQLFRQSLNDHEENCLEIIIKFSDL

[8] = target: T1, Peptide-N(4)-(N-acetyl-beta-glucosaminyl)asparagine amidase (Homo sapiens); test: Inhibition of NGLY1 in human SK-MEL-2 cells at 200 uM assessed as increase in IL-29 production measured after 48 hrs; type: cell-based
[9] = target: T1, Peptide-N(4)-(N-acetyl-beta-glucosaminyl)asparagine amidase (Homo sapiens); test: Inhibition of NGLY1 in human UACC-257 cells at 200 uM assessed as increase in IFN-beta1 production measured after 48 hrs; type: cell-based
[10] = target: T1, Peptide-N(4)-(N-acetyl-beta-glucosaminyl)asparagine amidase (Homo sapiens); test: Inhibition of NGLY1 in human SK-MEL-2 cells at 200 uM assessed as increase in IFN-beta1 production measured after 48 hrs; type: cell-based
[11] = target: T1, Peptide-N(4)-(N-acetyl-beta-glucosaminyl)asparagine amidase (Homo sapiens); test: Inhibition of NGLY1 in human UACC-257 cells at 200 uM assessed as increase in IL-29 production measured after 48 hrs; type: cell-based
[12] = system: SK-MEL-2; test: Antiproliferative activity against human SK-MEL-2 cells assessed as decrease in cell viability in presence of bortezomib; type: functional, cell-based
[13] = target: T1, Peptide-N(4)-(N-acetyl-beta-glucosaminyl)asparagine amidase (Homo sapiens); test: Inhibition of NGLY1 in human HDF51 cells at 200 uM assessed as increase in IFN-beta1 production measured after 48 hrs; type: cell-based
[14] = target: T1, Peptide-N(4)-(N-acetyl-beta-glucosaminyl)asparagine amidase (Homo sapiens); test: Inhibition of NGLY1 in human HDF51 cells at 200 uM assessed as increase in IL-29 production measured after 48 hrs; type: cell-based
[15] = system: SK-MEL-2; test: Antiproliferative activity against human SK-MEL-2 cells assessed as decrease in cell viability in presence of dacarbazine; type: functional, cell-based

| Compound | Activity [1] | Activity [2] | Activity [3] | Activity [4] | Activity [5] | Activity [6] | inhibition [7] | Activity [8] | Activity [9] | Activity [10] | Activity [11] | Activity [12] | Activity [13] | Activity [14] | Activity [15] |
| --- | --- | --- | --- | --- | --- | --- | --- | --- | --- | --- | --- | --- | --- | --- | --- |
| CCCNC(=O)[C@H](CC(=O)N[C@@H]1O[C@H](COC(C)=O)[C@@H](OC(C)=O)[C@H](OC(C)=O)[C@H]1NC(C)=O)NC(=O)/C=C/CN(C)C | Non-Toxic | Active | Non-Toxic | Active | Active | – | – | – | – | – | – | – | – | – | – |
| CCCNC(=O)[C@H](CC(=O)N[C@@H]1O[C@H](COC(C)=O)[C@@H](OC(C)=O)[C@H](OC(C)=O)[C@H]1NC(C)=O)NC(=O)CCl | Non-Toxic | Active | Non-Toxic | Active | Active | Active | Active | Active | Active | Active | Active | Active | – | – | – |
| C=CS(=O)(=O)N[C@@H](CC(=O)N[C@@H]1O[C@H](COC(C)=O)[C@@H](OC(C)=O)[C@H](OC(C)=O)[C@H]1NC(C)=O)C(=O)NCCC | Non-Toxic | Active | Non-Toxic | Active | Active | – | – | Active | Active | Active | Active | – | inactive | inactive | – |
| C=CC(=O)N[C@@H](CC(=O)N[C@@H]1O[C@H](COC(C)=O)[C@@H](OC(C)=O)[C@H](OC(C)=O)[C@H]1NC(C)=O)C(=O)NCCC | Non-Toxic | Active | Non-Toxic | Active | Active | – | – | Active | Active | Active | Active | – | inactive | inactive | Active |
